Measured values as given in US20030229066A1, “Novel heterocyclic urea derivatives and their use as dopamine D3 receptor ligands” (priority 2001, published 2003).

Molecular target: T1, cloned human dopamine D3 receptors (Homo sapiens, UniProt P35462)
T1 construct: expressed in transfected cells
Assay: [N-Methyl-3H]Spiroperidol binding to cloned human dopamine D3 receptors
Excerpt: [N-Methyl-^3H]Spiroperidol Binding to Cloned Human Dopamine D3 Receptors
This assay measures the in vitro activity of compounds on cloned human dopamine (D3) receptors and predicts the direct dopamine-blocking properties of putative neuropsychiatric agents at human dopamine D3 receptors.
The D3 gene was isolated from a human striatal cDNA library (Stratagene). The gene was sequenced and sub-cloned into the expression vector RC/RSV (Invitrogen). CHO (Chinese Hamster Ovary) cells were stably transfected with 10 μg of the D3/RSV plasmid using the DOTAP method from Boehringer Mannheim and 72 clones that were G418 resistant were isolated. Using mRNA and binding displacement data a single high expressing clone was identified. This clone was then grown in large batches for the purpose of developing a 96 well format assay.
The cells are harvested into 250 ml centrifuge tubes with 100 volumes of cold phosphate buffered saline (PBS) and spun down (1200×G for 10 min at 4° C.). The medium is removed and 100 ml PBS are added to each centrifuge tube, cells are resuspened and spun down again. The PBS is removed and the final pellet is homogenized in an appropriate volume of 10% DMSO with a polytron on ice at a medium setting.
For Kj determinations: [^3H]NMSP is made up to a concentration of 2.7 nM in buffer 2b, such that when 150 μl is added to each tube a final concentration of 0.4 nM is attained in the 1 ml assay. Samples of total CPM added are taken for each experiment to calculate the total ligand concentration.
5. S(-)-Eticlopride is obtained from Research Biochemicals International (RBI catalog number E-101). A refrigerated stock (good for up to a month) solution of S(-)-eticlopride is made at a concentration of 30 μM in buffer 2b. One hundred microliters are added to 3 wells for the determination of nonspecific binding (this yields a final concentration of 3 μM in the 1 ml assay).
For most assays, a 100 μM stock solution of the test compound is made up in a suitable solvent (usually <0.1% acetic acid) and serially diluted with buffer 2b, such that when 100 μl of drug is combined with the total 1 ml assay, final concentrations ranging from 10^−5-10^−8 M are attained. Characteristically eight concentrations are studied for each assay; however, higher or lower concentrations may be used, depending on the potency of the drug.
The 96-Well Packard Unifilters GF/B are incubated for >1 h at 25° C. in 0.1% polyethylamine (from 3,b). The cold tissue is added last and mixed on a orbital shaker for a few seconds and is then incubated at 37° C. for 30 min in a shaking water bath. The assay is stopped by rapid filtration through Packard Unifilter plates. The filter membranes are then washed with 15 ml of ice-cold 0.05 M Tris buffer. The filters are then dried (˜15 min under a heat lamp or incubated for 15 min in a 60° C. oven) and a bottom seal is applied. Then 40 μl of Packard Microscint 20 scintillation cocktail is added and a permanent topseal (Type P) is applied and heat sealed. The plates are then shaken on an orbital shaker for 1 h and placed in the Packard Topcount and counted for at least 5 minutes for each point.
Specific binding is defined as the difference between total binding and the binding in the presence of 3 μM S-(-)-eticlopride. Total binding is approximately 10% of the total added ligand. Cheng-Prusoff determination (Kj's) are performed using Prism software using a one-site competition curve analysis where the top and the bottom of the non-linear regression are held constant at 0% and 100% percent inhibition. The percent inhibition at each drug concentration is the mean of duplicate determinations.

T1 sequence (P35462 whole entry): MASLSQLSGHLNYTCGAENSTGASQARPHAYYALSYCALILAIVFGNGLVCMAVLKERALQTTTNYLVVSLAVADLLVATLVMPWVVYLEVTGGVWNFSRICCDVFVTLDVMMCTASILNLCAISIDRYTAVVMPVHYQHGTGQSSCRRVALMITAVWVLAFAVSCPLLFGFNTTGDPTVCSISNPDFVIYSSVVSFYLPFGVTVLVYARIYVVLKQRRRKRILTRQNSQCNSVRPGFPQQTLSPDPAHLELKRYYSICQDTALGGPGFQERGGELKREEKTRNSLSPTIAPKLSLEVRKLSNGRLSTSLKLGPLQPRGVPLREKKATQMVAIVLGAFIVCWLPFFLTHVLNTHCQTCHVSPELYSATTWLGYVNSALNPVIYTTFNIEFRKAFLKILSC

Compound | Ki
O=C(NCCCCN1CCN(c2noc3ccsc23)CC1)Nc1cccc(Cl)c1 [compound 829370] | 4.91 nM
O=C(NCCCCN1CCN(c2noc3ccsc23)CC1)Nc1cccc(Br)c1 [compound 829373] | 14.9 nM
O=C(NCCCCN1CCN(c2noc3ccsc23)CC1)Nc1ccc(OC(F)(F)F)cc1 [compound 829374] | 103 nM
O=C(NCCCCN1CCN(c2noc3ccsc23)CC1)Nc1cc(Cl)cc(Cl)c1 [compound 829378] | 184 nM
CSc1ccc(NC(=O)NCCCCN2CCN(c3noc4ccsc34)CC2)cc1 [compound 829379] | 54.9 nM
CC(=O)c1cccc(NC(=O)NCCCCN2CCN(c3noc4ccsc34)CC2)c1 [compound 829381] | 46.5 nM
N#Cc1cccc(NC(=O)NCCCCN2CCN(c3noc4ccsc34)CC2)c1 [compound 829383] | 102 nM
COc1cc(NC(=O)NCCCCN2CCN(c3noc4ccsc34)CC2)cc(OC)c1OC [compound 829384] | 190 nM
O=C(NCCCCN1CCN(c2noc3ccsc23)CC1)Nc1ccccc1F [compound 829393] | 190 nM
COc1ccc(NC(=O)NCCCCN2CCN(c3noc4ccsc34)CC2)cc1 [compound 829396] | 121 nM
COc1cccc(NC(=O)NCCCCN2CCN(c3noc4ccsc34)CC2)c1 [compound 829398] | 44.1 nM
CC(C)c1ccc(NC(=O)NCCCCN2CCN(c3noc4ccsc34)CC2)cc1 [compound 829407] | 452 nM
O=C(NCCCCN1CCCN(c2noc3ccsc23)CC1)Nc1cc(C(F)(F)F)cc(C(F)(F)F)c1 [compound 829414] | 546 nM
O=C(NCCCCN1CCCN(c2noc3ccsc23)CC1)Nc1cc(C(F)(F)F)ccc1Cl [compound 829415] | 345 nM
O=C(NCCCCN1CCCN(c2noc3ccsc23)CC1)Nc1cc(F)ccc1F [compound 829417] | 338 nM
CSc1ccc(NC(=O)NCCCCN2CCCN(c3noc4ccsc34)CC2)cc1 [compound 829420] | 233 nM
O=C(NCCCCN1CCCN(c2noc3ccsc23)CC1)Nc1cc(C(F)(F)F)ccc1F [compound 829425] | 539 nM
COc1ccc(NC(=O)NCCCCN2CCCN(c3noc4ccsc34)CC2)cc1 [compound 829433] | 216 nM
CCOc1ccc(NC(=O)NCCCCN2CCC(c3noc4c(C)csc34)CC2)cc1 [compound 829873] | 27.7 nM
CCOc1ccc(NC(=O)N(CCCCN2CCC(c3noc4c(C)csc34)CC2)C(=O)Nc2ccc(OCC)cc2)cc1 [compound 829874] | 360 nM
Cc1csc2c(C3CCN(CCCCN(C(=O)Nc4cccc(F)c4)C(=O)Nc4cccc(F)c4)CC3)noc12 [compound 829875] | 94.7 nM
Cc1ccc(NC(=O)NCCCCN2CCC(c3noc4cc(C)sc34)CC2)cc1 [compound 830517] | 9.04 nM
COc1ccc(NC(=O)NCCCCN2CCC(c3noc4cc(C)sc34)CC2)cc1 [compound 830518] | 9.16 nM

Other lines, results leading:

Ki | Compound
0.0961 nM | COc1cccc(NC(=O)NCCCCN2CCCN(c3csc4cc(F)ccc34)CC2)c1 [compound 829221]
44.2 nM | Cc1cccc(NC(=O)NCCCCN2CCN(c3noc4ccsc34)CC2)c1 [compound 829369]
55.2 nM | O=C(NCCCCN1CCN(c2noc3ccsc23)CC1)Nc1ccc(F)cc1F [compound 829371]
31.9 nM | O=C(NCCCCN1CCN(c2noc3ccsc23)CC1)Nc1ccc(C(F)(F)F)cc1 [compound 829372]
176 nM | O=C(NCCCCN1CCN(c2noc3ccsc23)CC1)Nc1cc(C(F)(F)F)cc(C(F)(F)F)c1 [compound 829375]
87.9 nM | O=C(NCCCCN1CCN(c2noc3ccsc23)CC1)Nc1cc(F)ccc1F [compound 829377]
26.9 nM | Cc1ccc(NC(=O)NCCCCN2CCN(c3noc4ccsc34)CC2)cc1 [compound 829380]
42.7 nM | CCOc1ccc(NC(=O)NCCCCN2CCN(c3noc4ccsc34)CC2)cc1 [compound 829382]
142 nM | O=C(NCCCCN1CCN(c2noc3ccsc23)CC1)Nc1cc(C(F)(F)F)ccc1F [compound 829385]
114 nM | O=C(NCCCCN1CCN(c2noc3ccsc23)CC1)Nc1ccc(F)c(C(F)(F)F)c1 [compound 829387]
44 nM | O=C(NCCCCN1CCN(c2noc3ccsc23)CC1)Nc1ccc(F)cc1 [compound 829388]
50.5 nM | O=C(NCCCCN1CCN(c2noc3ccsc23)CC1)Nc1ccc(Cl)c(Cl)c1 [compound 829389]
37.5 nM | O=C(NCCCCN1CCN(c2noc3ccsc23)CC1)Nc1ccc(Cl)cc1 [compound 829390]
487 nM | O=C(NCCCCN1CCN(c2noc3ccsc23)CC1)Nc1ccc(Cl)cc1C(F)(F)F [compound 829392]
77.1 nM | O=C(NCCCCN1CCN(c2noc3ccsc23)CC1)Nc1cccc(F)c1 [compound 829394]
148 nM | O=C(NCCCCN1CCN(c2noc3ccsc23)CC1)Nc1cccc(C(F)(F)F)c1 [compound 829395]
86.6 nM | O=C(NCCCCN1CCN(c2noc3ccsc23)CC1)Nc1ccc(Br)cc1 [compound 829397]
379 nM | O=C(NCCCCN1CCCN(c2noc3ccsc23)CC1)Nc1cccc(Cl)c1 [compound 829409]

Ki | Compound
670 nM | O=C(NCCCCN1CCCN(c2noc3ccsc23)CC1)Nc1ccc(C(F)(F)F)cc1 [compound 829411]
327 nM | O=C(NCCCCN1CCCN(c2noc3ccsc23)CC1)Nc1ccc(Cl)c(C(F)(F)F)c1 [compound 829416]
52.9 nM | O=C(NCCCCN1CCCN(c2noc3ccsc23)CC1)Nc1cc(Cl)cc(Cl)c1 [compound 829418]
138 nM | Cc1ccc(NC(=O)NCCCCN2CCCN(c3noc4ccsc34)CC2)cc1 [compound 829419]
173 nM | CC(=O)c1cccc(NC(=O)NCCCCN2CCCN(c3noc4ccsc34)CC2)c1 [compound 829421]
466 nM | CC(C)c1ccc(NC(=O)NCCCCN2CCCN(c3noc4ccsc34)CC2)cc1 [compound 829422]
459 nM | O=C(NCCCCN1CCCN(c2noc3ccsc23)CC1)Nc1ccc(F)c(C(F)(F)F)c1 [compound 829427]
747 nM | O=C(NCCCCN1CCCN(c2noc3ccsc23)CC1)Nc1ccc(F)cc1 [compound 829428]
111 nM | O=C(NCCCCN1CCCN(c2noc3ccsc23)CC1)Nc1ccc(Cl)c(Cl)c1 [compound 829429]
153 nM | O=C(NCCCCN1CCCN(c2noc3ccsc23)CC1)Nc1cccc(F)c1 [compound 829431]
226 nM | O=C(NCCCCN1CCCN(c2noc3ccsc23)CC1)Nc1cccc(C(F)(F)F)c1 [compound 829432]
197 nM | O=C(NCCCCN1CCCN(c2noc3ccsc23)CC1)Nc1ccc(Br)cc1 [compound 829434]
77.1 nM | COc1cccc(NC(=O)N(CCCCN2CCC(c3noc4c(C)csc34)CC2)C(=O)Nc2cccc(OC)c2)c1 [compound 829876]
8.78 nM | Cc1cccc(NC(=O)NCCCCN2CCC(c3noc4c(C)csc34)CC2)c1 [compound 829878]
354 nM | Cc1csc2c(C3CCN(CCCCNC(=O)Nc4ccccc4F)CC3)noc12 [compound 829879]
143 nM | Cc1csc2c(C3CCN(CCCCNC(=O)Nc4cccc(C(F)(F)F)c4Cl)CC3)noc12 [compound 829882]
61.6 nM | O=C(NC[C@@H]1C[C@H]1CN1CCN(c2csc3cc(C(F)(F)F)ccc23)CC1)Nc1cccc(F)c1 [compound 832786]
